Laboratory results published in patent US5965701A, “Kappa receptor opioid peptides” (priority 1997, dated 1999).
Several values for one entry are separate records, joined by “and”; a condition that tells them apart may be missing. Equal values may be shown once. Where a SMILES comes first, the peptide text is derived from it. [ ]: non-standard residue; d: D form. The star is where a group is joined. dPhe(3,4-Cl2) = N[C@H](Cc1ccc(Cl)c(Cl)c1)C(=O)O; d2Nal = N[C@H](Cc1ccc2ccccc2c1)C(=O)O; NH(thiazol-2-yl) = c1csc(N*)n1; d2Thi = N[C@H](Cc1cccs1)C(=O)O; NH(4-picolyl) = c1cc(CN*)ccn1; N(CH2CH2)2NH = C1CN(*)CCN1; dNle = CCCC[C@@H](N)C(=O)O; Morpholide = C1CN(*)CCO1; NHBn = c1ccc(CN*)cc1; NEt2 = CCN(CC)*; NHcPr = C1CC1N*; NHPr = CCCN*

Tests used:
[1] = biological target: T1, cloned human mu opioid (hMOR) receptor (Homo sapiens, UniProt P35372); test: Competition binding at cloned hMOR, displacement of 3H-DAMGO; details: hMOR stably expressed in HN.9.10 cells, read-out: Ki MOR
T1 construct: expressed in transfected cells; host or cells: HN9.10 (mouse hippocampal neuroblastoma), stably transfected

conscious male ICR mice = test: Mouse acetic acid writhing test (WT); format: in vivo; details: for WT-ED50: i.v., 5 minutes before acetic acid i.p., writhes over 15 minutes; for % Antinociception 1 hr: 60 min pretreatment; for % Antinociception 2 hr: 120 min pretreatment
Protocol: Selected peptides that are identified in Tables A-G have been further specifically subjected to in vivo testing for determination of duration of action of their opioid properties, and the results are reported in Table H hereinafter. The peptide numbers correspond to those in the earlier tables and the figures with regard to μ/K ratio are simply carried over for reference purposes. The in vivo testing is carried out using a mouse writhing test (WT) that is well-suited for determining the length of duration of antinociceptive biological activity. This test is described in detail in an article by G. A. Bentley et al., Br. J. Phamac., 73:325-332, 1981, and it employs conscious male ICR mice which are purchased from Harlan and which weigh between 20 and 30 grams. The mice are fasted for 12 to 16 hours prior to beginning the test. The nociceptive behavior, i.e. writhing, to be monitored is induced by the intraperitoneal (i.p.) administration of dilute acetic acid. 10 milliliters of 0.6% aqueous acetic acid is used per kg of body weight. Writhing is scored during the 15 minutes following acetic acid administration. In a first step, compounds are tested at 3 to 4 increasing doses, given by intravenous route, and at one unique pretreatment time (-5 minutes before acetic acid injection). […] In a second step, this submaximal effective dose for each specific peptide is administered at various pretreatment times (i.e. -5 minutes, -60 minutes, -120 minutes and -180 minutes) prior to the administration of the acetic acid in order to determine the duration of action. Throughout the test, a control group of mice are used which are administered only the vehicle without the candidate peptide. The number of writhes are counted over a 15-minute period, starting from the time of acetic acid injection, and bioactivity, i.e. antinociception, is expressed as a percentage, and is calculated as follows:
100×(writhes in control group-writhes in treated group)/writhes in
Values higher than 100% indicate greater antinociception than at the beginning of the experiment. It is felt that the opioid peptide should be effective to reduce writhing by at least about 25% at a time of 1 hour to be considered to have long duration of in vivo action.
In addition to using this test to determine duration of antinociceptive activity, it is also used to measure the in vivo biopotency (short term) of the peptide. This value is given in the table under the heading WT-ED50 in milligrams per kg of body weight. The value is a measure of the dosage necessary to reduce the number of writhes in the mouse being tested by 50% (as compared to a control mouse) over a period of 15 minutes.

mouse = details: for TF-ED50: i.v., 52° C. water, central effects; for BPI (Brain Penetration Index): mouse, in vivo, iv
[2] = biological target: T2, cloned human kappa (hKOR) receptor (Homo sapiens, UniProt P41145); test: biochemical; format: binding; details: for μ/κ Ratio (binding affinity for KOR versus MOR): Ki MOR / Ki KOR; for Ki: read-out: Ki KOR
T2 construct: expressed in transfected cells; host or cells: HN9.10 (mouse hippocampal neuroblastoma), stably transfected

[3] = submaximal effective dose i.v., percentage of the activity found at -5 min

T1 sequence (P35372 whole entry): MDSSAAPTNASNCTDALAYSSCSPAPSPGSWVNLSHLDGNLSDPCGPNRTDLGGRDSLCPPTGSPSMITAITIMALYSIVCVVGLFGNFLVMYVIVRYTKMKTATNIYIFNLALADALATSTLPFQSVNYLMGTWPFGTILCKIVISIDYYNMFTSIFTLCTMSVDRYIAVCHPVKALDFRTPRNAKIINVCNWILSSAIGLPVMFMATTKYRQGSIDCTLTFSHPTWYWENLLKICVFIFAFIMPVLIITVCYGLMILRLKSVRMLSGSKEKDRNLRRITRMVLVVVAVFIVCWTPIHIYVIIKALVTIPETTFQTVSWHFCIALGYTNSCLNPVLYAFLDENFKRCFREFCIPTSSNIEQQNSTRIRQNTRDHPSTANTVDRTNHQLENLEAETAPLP
T2 sequence (P41145 whole entry): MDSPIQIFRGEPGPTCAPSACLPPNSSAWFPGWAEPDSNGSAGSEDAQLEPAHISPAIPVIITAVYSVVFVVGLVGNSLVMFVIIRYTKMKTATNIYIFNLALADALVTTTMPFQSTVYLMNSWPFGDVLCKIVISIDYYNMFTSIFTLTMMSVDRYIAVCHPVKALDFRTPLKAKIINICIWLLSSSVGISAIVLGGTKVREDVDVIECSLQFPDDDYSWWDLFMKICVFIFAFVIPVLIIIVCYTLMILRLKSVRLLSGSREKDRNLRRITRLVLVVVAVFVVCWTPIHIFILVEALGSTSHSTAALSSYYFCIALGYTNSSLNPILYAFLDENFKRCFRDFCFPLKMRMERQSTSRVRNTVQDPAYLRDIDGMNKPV

Structure (SMILES) | Ki [1] [nM] | WT-ED50 (conscious male ICR mice) | WT-ED50 (conscious male ICR mice; listed as Peptide No. 1) | antinociception after 3 hours (conscious male ICR mice; mouse acetic acid writhing assay, Example 1) | duration of antinociceptive bioactivity (duration of action) (conscious male ICR mice; result in words) | % Antinociception 1 hr (conscious male ICR mice; [3]) [%] | % Antinociception 2 hr (conscious male ICR mice; [3]) [%] | % Antinociception 3 hr (conscious male ICR mice; submaximal effective dose i.v., 180 min pretreatment, percentage of the activity found at -5 min) [%] | TF-ED50 (mouse) [mg/kg] | BPI (Brain Penetration Index) (mouse) | μ/κ Ratio (binding affinity for KOR versus MOR) [2] | μ/κ Ratio (binding affinity for KOR versus MOR) ([2]; listed as Peptide No. 1) | Ki [2] [nM]
CCCC[C@@H](NC(=O)[C@@H](Cc1ccccc1)NC(=O)[C@H](N)Cc1ccccc1)C(=O)N[C@H](CCCNC(=N)N)C(=O)NCC [Peptide 1, H-D-Phe-D-Phe-D-Nle-D-Arg-NHEt] (H-[dF][dF][dNle][dR]-NHEt) | 1890 ± 990 | 0.09 mg/kg | about 0.09 mg/kg | over 50% | very long duration of action | 83.9 | 75.5 | 61.3 | 9.7 | 108 | 38,000 | about 38,000 | ~0.05
CCCC[C@@H](NC(=O)[C@@H](Cc1ccccc1)NC(=O)[C@H](N)Cc1ccccc1)C(=O)N[C@H](CCCNC(=N)N)C(=O)NCCC [Peptide 3, H-D-Phe-D-Phe-D-Nle-D-Arg-NHPr] (H-[dF][dF][dNle][dR]-NHPr) | 1640 | 0.078 mg/kg |  |  |  | 29 | 30.7 |  | 13.82 | 177 | 18,000 |  | 0.09
CCCC[C@@H](NC(=O)[C@@H](Cc1ccccc1)NC(=O)[C@H](N)Cc1ccccc1)C(=O)N[C@H](CCCNC(=N)N)C(=O)NC1CC1 [Peptide 5, H-D-Phe-D-Phe-D-Nle-D-Arg-NH(Cyp)] (H-[dF][dF][dNle][dR]-NHcPr) | 3520 | 0.04 mg/kg |  |  |  | 66 | 34.5 |  | 4.4 | 110 | 20,000 |  | 0.18
CCCC[C@@H](NC(=O)[C@@H](Cc1ccccc1)NC(=O)[C@H](N)Cc1ccccc1)C(=O)N[C@H](CCCNC(=N)N)C(=O)N1CCOCC1 [Peptide 6, H-D-Phe-D-Phe-D-Nle-D-Arg-Mor] (H-[dF][dF][dNle][dR]-Morpholide) | 2510 | 0.014 mg/kg |  |  |  | 105.7 | 52.7 |  | 6.4 | 457 | 42,000 |  | 0.06
CCCC[C@@H](NC(=O)[C@@H](Cc1ccccc1)NC(=O)[C@H](N)Cc1ccccc1)C(=O)N[C@H](CCCNC(=N)N)C(=O)N(CC)CC [Peptide 7, H-D-Phe-D-Phe-D-Nle-D-Arg-N(Et2)] (H-[dF][dF][dNle][dR]-NEt2) | 1900 | 0.02 mg/kg and 0.020 mg/kg |  |  |  | 67.5 | 36.8 |  | 3.1 | 155 | 17,000 |  | 0.11
CCCC[C@@H](NC(=O)[C@@H](Cc1ccccc1)NC(=O)[C@H](N)Cc1ccccc1)C(=O)N[C@H](CCCNC(=N)N)C(=O)NCc1ccncc1 [Peptide 8, H-D-Phe-D-Phe-D-Nle-D-Arg-NH(4-Pic)] (H-[dF][dF][dNle][dR]-{NH(4-picolyl)}) | 3640 | 0.01 mg/kg |  |  |  | 66.9 | 45.1 |  | 9.84 | 984 | 26,000 |  | 0.14
CCCC[C@@H](NC(=O)[C@@H](Cc1ccccc1)NC(=O)[C@H](N)Cc1ccccc1)C(=O)N[C@H](CCCNC(=N)N)C(=O)Nc1nccs1 [Peptide 13, H-D-Phe-D-Phe-D-Nle-D-Arg-NH(2-Tzl)] (H-[dF][dF][dNle][dR]-{NH(thiazol-2-yl)}) | 1590 | 0.44 mg/kg |  |  |  | 30.7 |  |  |  |  | 2,700 |  | 0.59
CCCC[C@@H](NC(=O)[C@@H](Cc1ccccc1)NC(=O)[C@H](N)Cc1ccccc1)C(=O)N[C@H](CCCNC(=N)N)C(=O)NCc1ccccc1 [Peptide 14, H-D-Phe-D-Phe-D-Nle-D-Arg-NHBzl] (H-[dF][dF][dNle][dR]-NHBn) | 890 | 0.14 mg/kg |  |  |  | 36 |  |  |  |  | 2,000 |  | 0.44
CCCC[C@@H](NC(=O)[C@@H](Cc1ccccc1)NC(=O)[C@H](N)Cc1ccccc1)C(=O)N[C@H](CCCNC(=N)N)C(=O)N1CCNCC1 [Peptide 15, H-D-Phe-D-Phe-D-Nle-D-Arg-Ppz] (H-[dF][dF][dNle][dR]-{N(CH2CH2)2NH}) | 9100 | 0.017 mg/kg |  |  |  |  |  |  |  |  | 57,000 |  | 0.16
CCNC(=O)[C@@H](CCCN)NC(=O)[C@@H](CC(C)C)NC(=O)[C@@H](Cc1ccccc1)NC(=O)[C@H](N)Cc1ccccc1 [Peptide 56, H-D-Phe-D-Phe-D-Leu-D-Orn-NHEt] | 4150 | 0.057 mg/kg and 0.06 mg/kg |  |  |  | 76.3 | 60.2 |  |  |  | 13,000 |  | 0.31
CCCC[C@@H](NC(=O)[C@@H](Cc1ccccc1)NC(=O)[C@H](N)Cc1ccccc1)C(=O)N[C@H](Cc1ccc(CNC(=N)N)cc1)C(=O)N1CCOCC1 [Peptide 58, H-D-Phe-D-Phe-D-Nle-D-Gmf-Mor] | 3010 | 0.040 mg/kg |  |  |  |  |  |  |  |  | 6,500 |  | 0.46
CC(C)C[C@@H](NC(=O)[C@@H](Cc1ccc(Cl)c(Cl)c1)NC(=O)[C@H](N)Cc1cccs1)C(=O)N[C@H](CCCNC(=N)N)C(=O)NCc1ccncc1 [Peptide 60, H-D-Ala(2Thi)-D-3,4Cpa-D-Leu-D-Arg-NH(4Pic)] (H-[d2Thi][dPhe(3,4-Cl2)][dL][dR]-{NH(4-picolyl)}) | 769 | 0.083 mg/kg |  |  |  | 83.8 | 35.5 |  |  |  | 1,900 |  | 0.4
CC(C)C[C@@H](NC(=O)[C@@H](Cc1ccc2ccccc2c1)NC(=O)[C@H](N)Cc1cccs1)C(=O)N[C@H](CCCNC(=N)N)C(=O)N1CCOCC1 [Peptide 63, H-D-Ala(2Thi)-D-2Nal-D-Leu-D-Arg-Mor] (H-[d2Thi][d2Nal][dL][dR]-Morpholide) | 3170 | 0.04 mg/kg |  |  |  | 51.8 | 36.1 |  |  |  | 16,000 |  | 0.2
